Laboratory results from patent US20180230143A1, “INHIBITORS OF NHR2 AND/OR RUNX1/ETO-TETRAMERIZATION” (Heinrich-Heine-Universität Düsseldorf, priority 2013, published 2018).
Like-named read-outs stand apart in the source and are kept apart here.

Assays:
RUNX1-BCR protein [1] = target: T1, RUNX1-BCR protein (Homo sapiens, UniProt P11274+Q01196); assay: ABCD (avidin, biotin, complex, DNA) assay with RUNX1-BCR protein; assay type: biochemical; conditions: for inhibition at 1000 µM: read-out: ABCD Inhibition [%] BCR; for inhibition of binding of the RUNX1-BCR protein, ABCD: c=1100 μM in ABCD assay
T1 construct: replacing the NHR2 domain of the construct with the homologous BCR tetramerization domain (RUNX1-BCR protein); His6 (C); made in house; host or cells: E. coli BL21(DE3)
Method: (§1) Oligonucleotides were annealed to the corresponding unmodified antisense oligonucleotide to generate the RUNX1 binding site. Purified RUNX1 proteins were pre-incubated with a compound for 1 h at 4° C. Similarly the biotinylated double-stranded oligonucleotides were pre-incubated with streptavidin coated magnetic beads (Dynabeads M-280 Streptavidin, Invitrogen) for 1 h at 4° C. Protein/compound samples and beads with bound oligonucleotide were incubated in binding buffer (25 mM HEPES, pH 7.5, 50 mM KCl, 1 mM EDTA, pH 8.0, 10 mM MgCl2, 5% glycerol, 1 mM DTT) in the presence of 2% IGEPAL CA-630, 1 μg of salmon sperm, and 0.1% BSA for […]. After washing three times, the bound proteins were eluted from beads in SDS-PAGE sample buffer and resolved on SDS-PAGE followed by immunoblotting with a primary anti-myc (9E10, Santa Cruz) antibody and a secondary HRP-coupled antibody (goat anti-mouse IgG-HRP, Santa Cruz).

RUNX1-NHR2 protein [2] = target: T2, RUNX1-NHR2 protein (Homo sapiens, UniProt Q01196+Q06455); assay: ABCD (avidin, biotin, complex, DNA) assay with RUNX1-NHR2 protein; assay type: biochemical; conditions: for inhibition at 1000 µM: read-out: ABCD Inhibition [%] NHR2; for inhibition of tetramer-dependent binding of the RUNX1-NHR2 protein to immobilized RUNX3 oligonucleotide, ABCD: c=1100 μM in ABCD assay
T2 construct: the wild type NHR2 tetramerization domain or the homologous BCR tetramerization domain (highlighted) are optionally enclosed by an N-terminal RUNX1 domain; His6 (C); made in house; host or cells: E. coli BL21(DE3)
Method: as §1

RUNX1-NHR2 protein [3] = target: T2, RUNX1-NHR2 protein; assay: ELISA: tetramer-dependent binding of RUNX1-NHR2 protein to immobilized RUNX3 oligonucleotide; assay type: biochemical; conditions: for inhibition of tetramer-dependent binding of the RUNX1-NHR2 protein to immobilized RUNX3 oligonucleotide, ELISA: [P1]=500 μM and [PPIM]=2000 μM in ELISA; for IC50: inhibition of tetramerization of the RUNX1-NHR2 protein
Method: Preferably, for enzyme-linked immunosorbent assays (ELISA), wells of a 96 well plate were coated with 100 ng streptavidin (Dianova) in PBS over night at 4° C. […] Binding of RUNX1-containing proteins to the R3 oligonucleotide was detected with a primary anti-myc antibody (9E10, Santa Cruz) and a secondary HRP-coupled antibody (donkey anti-mouse IgG-HRP, Santa Cruz). ELISA was developed using the Sure Blue TMB Microwell Peroxidase substrate (KLP), and the reaction was stopped with sulfuric acid (1 N). Absorption at 450 nm and 650 nm was measured with the Spectra Max 340, Molecular Devices. Preferably, the ELISA assay is as further described in the experimental section.
The inhibition of NHR2 tetramerization was measured in vitro by tetramer-dependent binding of a RUNX1-NHR2 protein construct to an immobilized oligonucleotide derived from the RUNX3 promoter sequence in ELISA and ABCD assays. […] Furthermore, the influence of the inhibitors on the viability of RUNX1/ETO-dependent SKNO-1 cells was determined; as a control RUNX1/ETO-independent U937 cells were used.
The principle of the biochemical assays for measuring inhibition of NHR2 tetramerization is illustrated in FIG. 1. NHR2 tetramerization and its inhibition was measured in a purpose-built sandwich ELISA (enzyme-linked immunosorbent assay: FIG. 1A). • i) The RUNX1-NHR2 tetramer specifically binds to the biotinylated RUNX3-oligonucleotide (RUNX3-oligo^bio) that is immobilized on a streptavidine coated surface (SA). Disrupting the RUNX1-NHR2 tetramer into dimers leads to a release of the RUNX1-NHR2 protein from the surface. Antibody-conjugated horseradish peroxidase (HRP) binds to a primary anti-myc antibody (α-myc AB) that binds to the immobilized myc-labeled RUNX1-NHR2 tetramer. HRP catalyzes the conversion of 3,3′,5,5′-tetramethylbenzidine (TMB) to 3,3′,5,5-tetramethylbenzidine diimine.
Wells of a 96 well plate were coated with 100 ng streptavidin (Dianova) in PBS over night at 4° C. […] RUNX1-containing proteins were incubated with synthetic peptides or chemical compounds in binding buffer (25 mM HEPES, pH 7.5, 50 mM KCl, 1 mM EDTA, pH 8.0, 10 mM MgCl2, 5% glycerol, 1 mM DTT) in the presence of 1 μg salmon sperm and 1% IGEPAL CA-630 for 5 h and subsequently added to the streptavidin-bound R3 oligonucleotide for 15 min on the 96 well plate. Binding of RUNX1-containing proteins to the R3 oligonucleotide was detected with a primary anti-myc antibody (9E10, Santa Cruz) and a secondary HRP-coupled antibody (donkey anti-mouse IgG-HRP, Santa Cruz). ELISA was developed using the Sure Blue TMB Microwell Peroxidase substrate (KLP), and the reaction was stopped with sulfuric acid (1 N). Absorption at 450 nm and 650 nm was measured with the Spectra Max 340, Molecular Devices.

RUNX1-BCR protein [4] = target: T1, RUNX1-BCR protein; assay: ELISA: tetramer-dependent binding of RUNX1-BCR protein to immobilized RUNX3 oligonucleotide (selectivity control); assay type: biochemical; conditions: for inhibition of binding of the RUNX1-BCR protein, ELISA: [P1]=500 μM and [PPIM]=2000 μM in ELISA
SKNO-1 cells [5] = assay: FACS analysis of CD11b expression, SKNO-1 cells; assay type: cell-based; conditions: 25 μM for four days, at the day of injection
Method: (§3) For the experiment, the SCID- or SCUD-gamma chain mouse model was used. The experiment investigates if the transplantation of the AML cell line SKNO-1 after treatment with either 7.44 or 7.38 leads to reduced tumor growth. […] For this, the cells were treated in vitro with 25 μM of the respective compound for four days. Furthermore, untreated SKNO-1 and CML cell lines were used. […] At day 5 the number of living cells was determined, and 5×10^5 SKNO-1 cells or 5×10^5 K562 cells were injected per transplant. Per mouse, untreated and treated cells were injected into the left and right flank, respectively.
At the day of injection, the expression of the surface marker CD11b, a measure for cell differentiation, was determined (FIG. 5E) as was the rate of apoptosis (FIG. 5F).

SKNO-1 cells [6] = assay: Cell survival assay (XTT), RUNX1/ETO-dependent SKNO-1 cells; assay type: cell-based; conditions: daily treated with 1 μM or 10 μM; XTT at days 3, 5, and 7
Method: Cell proliferation and viability were measured with the cell proliferation kit II (XTT, Roche Applied Science). The XTT assay was performed at days 3, 5, and 7. […] SKNO-1 cells were cultured in RPMI 1640+10% FCS and 7 ng ml^−1 human GM-CSF. […] Cell proliferation and viability were measured with the cell proliferation kit II (XTT, Roche Applied Science). 3000 cells per well were cultured in a 96 well plate and daily treated with compounds at different concentrations. The XTT assay was performed at days 3, 5, and 7.

SKNO-1 cells [7] = assay: Xenotransplantation of pre-treated SKNO-1 cells in SCID mice; assay type: in vivo, mouse; conditions: cells treated in vitro with 25 μM for four days, injected subcutaneously, versus untreated cells
Method: The effect of the inhibition of NHR2 tetramerization was measured in a mouse model (xenotransplantation of SKNO-1 and K562 cells in SCID mice).
as §3
For determining the tumor volume, the length and the width of the tumor was measured twice weekly, starting one week after the transplantation (FIGS. 5A and 5B). […] At the end of the experiment, the tumors were freed and weighed (FIGS. 5C and 5D).

NHR2 protein = target: T3, NHR2 protein (Homo sapiens, UniProt Q06455); assay: BS3 cross-linking assay of NHR2 oligomers; assay type: biochemical; conditions: for inhibition of NHR2 tetramerization (reduction of BS3 cross-linked NHR2 oligomers): c=1100 μM
T3 construct: the wild type NHR2 tetramerization domain or the homologous BCR tetramerization domain (highlighted) are optionally enclosed by an N-terminal RUNX1 domain; His6 (C); made in house; host or cells: E. coli BL21(DE3)
T3 sequence (Q06455 334-400): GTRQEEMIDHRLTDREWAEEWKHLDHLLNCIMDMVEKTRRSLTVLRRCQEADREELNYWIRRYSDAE
Method: (§2) Preferably, for the cross-linking assay, purified NHR2 protein or NHR2-containing protein (5 μM) was incubated with the peptides at 4° C. for 1 h. The BS^3 (Bis[sulfosuccinimidyl] suberate) crosslink-reaction was performed at a final concentration of 1 mM for 30 min at RT. Tris-HCl (0.05 M, pH 7.4) was added to the reaction mix and incubated for 10 min to stop the reaction. Protein-oligomer nation was analyzed by western blotting. For protein detection, the membrane was incubated with a primary anti-myc antibody (9E10, Santa Cruz) and a secondary HRP-coupled antibody (goat anti-mouse IgG-HRP, Santa Cruz). Preferably, the cross-linking assay is as further described in the experimental section.
as §2, with “Purified” for “Preferably, for the cross-linking assay, purified”, “NHR2” for “NHR2 protein or NHR2-containing”, “Protein-oligomerization” for “Protein-oligomer nation”, “Cruz).” for “Cruz). Preferably, the cross-linking assay is as further described in the experimental section.”

[8] = relative inhibition at 1 mM inhibitor concentration, RUNX1-BCR
[9] = relative inhibition at 1 mM inhibitor concentration, RUNX1-NHR2 protein
[10] = measured at 2 mM concentration, RUNX1-NHR2 protein, read-out: ELISA Inhibition [%] NHR2
[11] = measured at 2 mM concentration, RUNX1-BCR, read-out: ELISA Inhibition [%] BCR

T1 sequence (Q01196+P11274 fused): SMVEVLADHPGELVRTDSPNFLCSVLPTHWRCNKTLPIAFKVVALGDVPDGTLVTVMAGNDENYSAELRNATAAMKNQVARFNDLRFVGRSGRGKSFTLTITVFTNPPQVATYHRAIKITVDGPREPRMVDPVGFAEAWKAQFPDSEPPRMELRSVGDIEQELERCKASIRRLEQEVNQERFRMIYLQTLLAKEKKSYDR
T2 sequence (Q01196+Q06455 fused): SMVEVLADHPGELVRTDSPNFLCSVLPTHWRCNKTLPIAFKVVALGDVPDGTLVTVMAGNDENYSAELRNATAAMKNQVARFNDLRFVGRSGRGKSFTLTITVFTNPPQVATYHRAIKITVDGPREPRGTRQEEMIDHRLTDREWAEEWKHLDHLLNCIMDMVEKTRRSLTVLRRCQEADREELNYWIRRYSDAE

Row | inhibition at 1000 µM (RUNX1-BCR protein [1]; [8]) | inhibition at 1000 µM (RUNX1-NHR2 protein [2]; [9]) | inhibition at 2000 µM (RUNX1-NHR2 protein [3]; [10]) | inhibition at 2000 µM (RUNX1-BCR protein [4]; [11]) | inhibition of tetramer-dependent binding of the RUNX1-NHR2 protein to immobilized RUNX3 oligonucleotide, ELISA (RUNX1-NHR2 protein [3]) | IC50 (RUNX1-NHR2 protein [3]) | Compound | inhibition of binding of the RUNX1-BCR protein, ABCD (RUNX1-BCR protein [1]) | inhibition of tetramer-dependent binding of the RUNX1-NHR2 protein to immobilized RUNX3 oligonucleotide, ABCD (RUNX1-NHR2 protein [2]) | inhibition of binding of the RUNX1-BCR protein, ELISA (RUNX1-BCR protein [4]) | inhibition of NHR2 tetramerization (reduction of BS3 cross-linked NHR2 oligomers) (NHR2 protein) | also measured
1 | 28.5% | 57.7% | 94.4% | 31.5% |  |  | Cc1ccc(OCC(=O)O)c(OCC(=O)O)c1 [Compound 7.3, 2-[2-(carboxymethyloxy)-4-methyl-phenoxy]acetic acid] |  |  |  |  | 
2 | 6.1% | 47.4% | 71.6% | 10% |  |  | O=C(O)COc1cccc(OCC(=O)O)c1 [Compound 7.4, 2,2′-(1,3-phenylenebis(oxy))diacetic acid] |  |  |  |  | 
3 | 26.1% | 20.1% | 4% |  | not | > 2000 µM | Cc1c(C(=O)O)[nH]c(/C=C/C(=O)O)nc1=O [Compound 7.38, (E)-2-(2-carboxyvinyl)-5-methyl-6-oxo-3,6-dihydropyrimidine-4-carboxylic acid, reference compound] |  |  |  |  | increase of the CD11b expression in SKNO-1 cells (SKNO-1 cells [5]): 2%; proliferation of SKNO-1 cells (XTT assay) (SKNO-1 cells [6]): did not affect; tumor growth (tumor volume) of transplanted SKNO-1 cells (SKNO-1 cells [7]): small reduction
4 |  |  |  |  |  | > 2000 µM | Ac-VARRCAEAAREALNYAIR-NH2 [P3, reference compound] |  |  |  | neither P2, P3 nor the unrelated peptide CP inhibit NHR2 tetramerization | 
5 |  |  |  |  | selectively inhibit | 460 µM | Ac-VLRRCQEADREELNYWIR-NH2 [P1, reference compound] | is not inhibited | selectively inhibit | is not inhibited | inhibit NHR2 tetramerization | dose dependence of inhibition of NHR2 tetramerization (cross-linking) (NHR2 protein): dose-dependent; IC50 (NHR2 protein; read-out: IC50 of inhibition of NHR2 tetramerization (cross-linking)): 250 µM; inhibition at 1000 µM (RUNX1-NHR2 protein [3]; relative inhibition at 1 mM inhibitor concentration, RUNX1-NHR2 protein, read-out: ELISA Inhibition [%] NHR2): 42.8%; inhibition at 1000 µM (RUNX1-BCR protein [4]; relative inhibition at 1 mM inhibitor concentration, RUNX1-BCR, read-out: ELISA Inhibition [%] BCR): 9.2%

Row | Compound | inhibition at 1000 µM (RUNX1-BCR protein [1]; [8]) | inhibition at 1000 µM (RUNX1-NHR2 protein [2]; [9]) | inhibition at 2000 µM (RUNX1-NHR2 protein [3]; [10]) | inhibition at 2000 µM (RUNX1-BCR protein [4]; [11]) | inhibition of tetramer-dependent binding of the RUNX1-NHR2 protein to immobilized RUNX3 oligonucleotide, ELISA (RUNX1-NHR2 protein [3]) | IC50 (RUNX1-NHR2 protein [3]) | inhibition of binding of the RUNX1-BCR protein, ABCD (RUNX1-BCR protein [1]) | inhibition of tetramer-dependent binding of the RUNX1-NHR2 protein to immobilized RUNX3 oligonucleotide, ABCD (RUNX1-NHR2 protein [2]) | inhibition of binding of the RUNX1-BCR protein, ELISA (RUNX1-BCR protein [4]) | inhibition of NHR2 tetramerization (reduction of BS3 cross-linked NHR2 oligomers) (NHR2 protein) | also measured
6 | COc1cc(CC(C(=O)O)C(C)C(=O)c2ccc3c(c2)OCO3)cc(OC)c1OC (stereo not drawn) [Compound 7.18, 4-(benzo[d][1,3]dioxol-5-yl)-3-methyl-4-oxo-2-(3,4,5-trimethoxybenzyl)butanoic acid] |  |  |  |  | selectively inhibit |  | is not inhibited | selectively inhibit | is not inhibited |  | inhibition at 1000 µM (RUNX1-BCR protein [1]): -2.2%; inhibition at 1000 µM (RUNX1-NHR2 protein [2]): 80.2%; inhibition at 2000 µM (RUNX1-NHR2 protein [3]; read-out: ELISA Inhibition [%] NHR2): 47.7%; inhibition at 2000 µM (RUNX1-BCR protein [4]; read-out: ELISA Inhibition [%] BCR): -6.7%
